# Source: PubChem BioAssay AID1745844 (Carcinogenic Potency Database (CPDB), 2022)
# Values joined by “and” are separate entries in the source; they are usually repeats but may differ in a detail not shown here. Identical values can stand only once. Active and inactive are the calls of the source. How the calls were made is not given here.
# Test system: rodent lifetime carcinogenesis bioassay, tumor incidence TD50
# Assay: chronic cancer bioassays in animals – CPDB, compiled studies (AID 1745844)
structure (smiles),measurement,setting,value
NN,TD50,"hamster, strain Syrian Golden, males, inhaled, site: colon, lesion: adenocarcinoma, dosed 52 weeks, study length 104 weeks",14 mg/kg/day
same,TD50,"hamster, strain Syrian Golden, males, inhaled, site: colon, lesion: leiomyoma, dosed 52 weeks, study length 104 weeks",70.5 mg/kg/day
same,TD50,"hamster, strain Syrian Golden, males, inhaled, site: colon, lesion: papilloma, dosed 52 weeks, study length 104 weeks",70.5 mg/kg/day
same,TD50,"hamster, strain Syrian Golden, males, inhaled, site: nasal cavity, lesion: adenomatous polyp, dosed 52 weeks, study length 104 weeks",4.16 mg/kg/day
same,TD50,"hamster, strain Syrian Golden, males, inhaled, site: stomach, lesion: basal-cell carcinoma, dosed 52 weeks, study length 104 weeks",37.6 mg/kg/day
same,TD50,"hamster, strain Syrian Golden, males, inhaled, site: thyroid gland, lesion: parafollicular-cell adenoma, dosed 52 weeks, study length 104 weeks",17.5 mg/kg/day
same,TD50,"mouse, strain Bor:NMRI, SPF-bred NMRI, females, in drinking water, site: any site (literature study), lesion: benign tumor, dosed 104 weeks, study length 104 weeks",58.5 mg/kg/day (inactive)
same,carcinogen call,"mouse, strain Bor:NMRI, SPF-bred NMRI, females, in drinking water, site: any site (literature study), lesion: malignant tumor, dosed 104 weeks, study length 104 weeks",negative (inactive)
same,carcinogen call,"mouse, strain Bor:NMRI, SPF-bred NMRI, males, in drinking water, site: any site (literature study), lesion: benign tumor, dosed 104 weeks, study length 104 weeks",negative (inactive)
same,carcinogen call,"mouse, strain Bor:NMRI, SPF-bred NMRI, males, in drinking water, site: any site (literature study), lesion: malignant tumor, dosed 104 weeks, study length 104 weeks",negative (inactive)
same,TD50,"mouse, strain C57BL/6, females, inhaled, site: lung, lesion: adenoma, dosed 52 weeks, study length 117 weeks",7.78 mg/kg/day
same,TD50,"mouse, strain Swiss, females, by gavage, site: lung, lesion: one or several types, types not named, dosed 40 weeks, study length 55 weeks",5.67 mg/kg/day
same,TD50,"mouse, strain Swiss, females, in drinking water, site: lung, lesion: adenocarcinoma, dosed 113 weeks, study length 113 weeks",9 mg/kg/day
same,TD50,"mouse, strain Swiss, females, in drinking water, site: lung, lesion: adenoma, dosed 113 weeks, study length 113 weeks",2.81 mg/kg/day
same,TD50,"mouse, strain Swiss, females, in drinking water, site: lung, lesion: several types, types named in the paper, dosed 113 weeks, study length 113 weeks",2.54 mg/kg/day
same,TD50,"mouse, strain Swiss, males, in drinking water, site: all sites, lesion: malignant lymphoma, dosed 113 weeks, study length 113 weeks",9.52 mg/kg/day
same,TD50,"mouse, strain Swiss, males, in drinking water, site: liver, lesion: several types, types named in the paper, dosed 113 weeks, study length 113 weeks",29.8 mg/kg/day
same,TD50,"mouse, strain Swiss, males, in drinking water, site: lung, lesion: adenocarcinoma, dosed 113 weeks, study length 113 weeks",6.19 mg/kg/day
same,TD50,"mouse, strain Swiss, males, in drinking water, site: lung, lesion: adenoma, dosed 113 weeks, study length 113 weeks",2.77 mg/kg/day
same,TD50,"mouse, strain Swiss, males, in drinking water, site: lung, lesion: several types, types named in the paper, dosed 113 weeks, study length 113 weeks",2.2 mg/kg/day
same,TD50,"rat, strain Fischer 344, females, inhaled, site: lung, lesion: bronchiolar adenoma, dosed 52 weeks, study length 130 weeks",26.4 mg/kg/day
same,TD50,"rat, strain Fischer 344, females, inhaled, site: nasal cavity, lesion: adenocarcinoma, dosed 52 weeks, study length 130 weeks",9.2 mg/kg/day
same,TD50,"rat, strain Fischer 344, females, inhaled, site: nasal cavity, lesion: adenomatous polyp, dosed 52 weeks, study length 130 weeks",0.758 mg/kg/day
same,TD50,"rat, strain Fischer 344, females, inhaled, site: nasal cavity, lesion: squamous-cell carcinoma, dosed 52 weeks, study length 130 weeks",13.1 mg/kg/day
same,TD50,"rat, strain Fischer 344, females, inhaled, site: nasal cavity, lesion: squamous-cell papilloma, dosed 52 weeks, study length 130 weeks",8.72 mg/kg/day
same,TD50,"rat, strain Fischer 344, females, inhaled, site: nasal cavity, lesion: villous polyp, dosed 52 weeks, study length 130 weeks",6.56 mg/kg/day
same,TD50,"rat, strain Fischer 344, males, inhaled, site: lung, lesion: bronchiolar adenoma, dosed 52 weeks, study length 130 weeks",6.1 mg/kg/day
same,carcinogen call,"rat, strain Fischer 344, males, inhaled, site: nasal cavity, lesion: adenocarcinoma, dosed 52 weeks, study length 130 weeks",positive
same,TD50,"rat, strain Fischer 344, males, inhaled, site: nasal cavity, lesion: adenomatous polyp, dosed 52 weeks, study length 130 weeks",0.194 mg/kg/day
same,TD50,"rat, strain Fischer 344, males, inhaled, site: nasal cavity, lesion: squamous-cell carcinoma, dosed 52 weeks, study length 130 weeks",6.12 mg/kg/day
same,TD50,"rat, strain Fischer 344, males, inhaled, site: nasal cavity, lesion: squamous-cell papilloma, dosed 52 weeks, study length 130 weeks",6.1 mg/kg/day
same,TD50,"rat, strain Fischer 344, males, inhaled, site: nasal cavity, lesion: villous polyp, dosed 52 weeks, study length 130 weeks",1.36 mg/kg/day
same,TD50,"rat, strain Fischer 344, males, inhaled, site: thyroid gland, lesion: carcinoma, dosed 52 weeks, study length 130 weeks",1.6 mg/kg/day
same,TD50,"rat, strain Wistar, females, in drinking water, site: liver, lesion: hepatocellular carcinoma, dosed 157 weeks, study length 157 weeks",129 mg/kg/day
same,TD50,"rat, strain Wistar, females, in drinking water, site: liver, lesion: several types, types named in the paper, dosed 157 weeks, study length 157 weeks",41.6 mg/kg/day
same,TD50,"rat, strain Wistar, females, in drinking water, site: mammary gland, lesion: malignant tumor, dosed 157 weeks, study length 157 weeks",1.13 mg/kg/day
same,TD50,"rat, strain Wistar, males, in drinking water, site: any site (literature study), lesion: several types, types named in the paper, dosed 157 weeks, study length 157 weeks",9.64 mg/kg/day
same,TD50,"rat, strain Wistar, males, in drinking water, site: liver, lesion: several types, types named in the paper, dosed 157 weeks, study length 157 weeks",43.7 mg/kg/day
O=NN1CCCCC1C(=O)O (stereo not given),TD50,"rat, strain MRC, females, in drinking water, site: any site (literature study), lesion: several types, types named in the paper, dosed 75 weeks, study length 104 weeks",4.99 mg/kg/day (inactive)
same,TD50,"rat, strain MRC, males, in drinking water, site: any site (literature study), lesion: several types, types named in the paper, dosed 75 weeks, study length 104 weeks",3.82 mg/kg/day (inactive)
C[C@@H]1C[C@H](C)CN(S(=O)(=O)c2ccc(Cl)c(C(=O)O)c2)C1,TD50,"rat, strain Fischer 344, males, in feed, site: liver, lesion: hepatocellular carcinoma, dosed 70 weeks, study length 71 weeks",4.85 mg/kg/day
CCSCC[C@H](N)C(=O)O,carcinogen call,"rat, strain Wistar, males, in feed, site: liver, lesion: carcinoma, dosed 34 weeks, study length 52 weeks",positive
NCCNc1cccc2ccccc12,carcinogen call,"mouse, strain B6C3F1, females, in feed, site: any site (literature study), lesion: several types, types named in the paper, dosed 104 weeks, study length 106 weeks",negative (inactive)
same,TD50,"mouse, strain B6C3F1, females, in feed, site: liver, lesion: hepatocellular adenoma + hepatocellular carcinoma + neoplastic nodule, dosed 104 weeks, study length 106 weeks",25600 mg/kg/day
same,TD50,"mouse, strain B6C3F1, females, in feed, site: lung, lesion: alveolar/bronchiolar adenoma + alveolar/bronchiolar carcinoma, dosed 104 weeks, study length 106 weeks",4390 mg/kg/day
same,carcinogen call,"mouse, strain B6C3F1, males, in feed, site: any site (literature study), lesion: several types, types named in the paper, dosed 104 weeks, study length 104 weeks",negative (inactive)
same,TD50,"rat, strain Fischer 344, females, in feed, site: liver, lesion: hepatocellular adenoma + hepatocellular carcinoma + neoplastic nodule, dosed 104 weeks, study length 107 weeks",93.5 mg/kg/day
same,TD50,"rat, strain Fischer 344, females, in feed, site: liver, lesion: hepatocellular carcinoma + neoplastic nodule, dosed 104 weeks, study length 107 weeks",93.5 mg/kg/day (inactive)
same,TD50,"rat, strain Fischer 344, males, in feed, site: any site (literature study), lesion: several types, types named in the paper, dosed 104 weeks, study length 107 weeks",41.6 mg/kg/day (inactive)
N[C@@H](Cc1c[nH]c2ccccc12)C(=O)O,carcinogen call,"mouse, strain B6C3F1, females, in feed, site: any site (literature study), lesion: several types, types named in the paper, dosed 78 weeks, study length 104 weeks",negative (inactive)
same,TD50,"mouse, strain B6C3F1, females, in feed, site: liver, lesion: hepatocellular adenoma + hepatocellular carcinoma + neoplastic nodule, dosed 78 weeks, study length 104 weeks",30200 mg/kg/day
same,TD50,"mouse, strain B6C3F1, males, in feed, site: any site (literature study), lesion: several types, types named in the paper, dosed 78 weeks, study length 104 weeks",1470 mg/kg/day (inactive)
same,carcinogen call,"rat, strain Fischer 344, females, in feed, site: any site (literature study), lesion: several types, types named in the paper, dosed 78 weeks, study length 104 weeks",negative (inactive)
same,carcinogen call,"rat, strain Fischer 344, males, in feed, site: any site (literature study), lesion: several types, types named in the paper, dosed 78 weeks, study length 104 weeks",negative (inactive)
same,carcinogen call,"rat, strain Fischer, males, in feed, site: urinary bladder, lesion: several types, types named in the paper, dosed 100 weeks, study length 104 weeks",negative (inactive)
CN(C)CCN(Cc1cccs1)c1ccccc1,carcinogen call,"rat, strain Fischer 344, females, in drinking water, site: liver, lesion: several types, types named in the paper, dosed 82 weeks, study length 130 weeks",negative (inactive)
same,TD50,"rat, strain Fischer 344, females, in drinking water, site: thyroid follicle, lesion: several types, types named in the paper, dosed 82 weeks, study length 130 weeks",487 mg/kg/day (inactive)
same,carcinogen call,"rat, strain Fischer 344, males, in drinking water, site: liver, lesion: several types, types named in the paper, dosed 82 weeks, study length 130 weeks",negative (inactive)
same,carcinogen call,"rat, strain Fischer 344, males, in drinking water, site: thyroid follicle, lesion: several types, types named in the paper, dosed 82 weeks, study length 130 weeks",negative (inactive)
COC(=O)c1ccc(C(=O)OC)cc1,TD50,"mouse, strain B6C3F1, females, in feed, site: any site (literature study), lesion: several types, types named in the paper, dosed 103 weeks, study length 105 weeks",4340 mg/kg/day (inactive)
same,TD50,"mouse, strain B6C3F1, females, in feed, site: lung, lesion: alveolar/bronchiolar adenoma + alveolar/bronchiolar carcinoma, dosed 103 weeks, study length 105 weeks",44000 mg/kg/day
same,TD50,"mouse, strain B6C3F1, males, in feed, site: lung, lesion: alveolar/bronchiolar adenoma + alveolar/bronchiolar carcinoma, dosed 103 weeks, study length 104 weeks",1160 mg/kg/day (inactive) and 1160 mg/kg/day
same,TD50,"rat, strain Fischer 344, females, in feed, site: any site (literature study), lesion: several types, types named in the paper, dosed 103 weeks, study length 105 weeks",342 mg/kg/day (inactive)
same,carcinogen call,"rat, strain Fischer 344, males, in feed, site: any site (literature study), lesion: several types, types named in the paper, dosed 103 weeks, study length 105 weeks",negative (inactive)
COc1nn(CSP(=S)(OC)OC)c(=O)s1,carcinogen call,"mouse, strain Charles River CD1, females, in feed, site: liver, lesion: hepatocellular adenoma, dosed 100 weeks, study length 100 weeks",negative (inactive)
same,TD50,"mouse, strain Charles River CD1, females, in feed, site: liver, lesion: hepatocellular carcinoma, dosed 100 weeks, study length 100 weeks",184 mg/kg/day (inactive)
same,TD50,"mouse, strain Charles River CD1, females, in feed, site: liver, lesion: several types, types named in the paper, dosed 100 weeks, study length 100 weeks",16200 mg/kg/day (inactive)
same,TD50,"mouse, strain Charles River CD1, males, in feed, site: liver, lesion: hepatocellular adenoma, dosed 100 weeks, study length 100 weeks",17.2 mg/kg/day
same,TD50,"mouse, strain Charles River CD1, males, in feed, site: liver, lesion: hepatocellular carcinoma, dosed 100 weeks, study length 100 weeks",21.8 mg/kg/day
same,TD50,"mouse, strain Charles River CD1, males, in feed, site: liver, lesion: several types, types named in the paper, dosed 100 weeks, study length 100 weeks",6.04 mg/kg/day
